# Measurements reported in patent publication US10239832B2, “N-(1-hydroxy-3-(pyrrolidinyl)propan-2-yl)pyrrolidine-3-carboxamide derivatives as glucosylceramide synthase inhibitors” (BIOMARIN PHARMACEUTICAL INC., priority 2013, dated 2019).
# Target: T1, GCS (Canis lupus familiaris, UniProt A0A8I3MXG6)
# T1 construct: endogenous in cells; host or cells: MDCK (Madin-Darby canine kidney) cells, whole-cell lysate
# T1 sequence (A0A8I3MXG6 1-394): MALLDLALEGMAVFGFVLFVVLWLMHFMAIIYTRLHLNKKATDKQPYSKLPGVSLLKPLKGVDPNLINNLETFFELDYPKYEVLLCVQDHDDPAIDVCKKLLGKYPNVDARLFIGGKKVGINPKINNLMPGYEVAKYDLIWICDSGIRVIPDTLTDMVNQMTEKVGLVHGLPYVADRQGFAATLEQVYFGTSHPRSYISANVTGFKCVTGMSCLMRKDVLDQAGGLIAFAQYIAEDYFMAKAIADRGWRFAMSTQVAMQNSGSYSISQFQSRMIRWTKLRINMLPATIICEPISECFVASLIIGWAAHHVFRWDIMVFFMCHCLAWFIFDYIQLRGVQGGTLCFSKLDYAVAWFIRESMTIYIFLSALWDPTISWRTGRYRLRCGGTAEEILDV
# Test: GCS enzymatic assay (MDCK cell lysate, NBD-ceramide to glucosylceramide, LC/MS)
# Assay type: biochemical, canine
# Details: Table 2; class symbols A, B, C; the table does not say which of the assays; read-out: Data Range (IC50 values)
# Protocol: This assay was modified based on the study by Larsen et al. (J. Lipid Res. 2011, 53, 282). Madin-Darby canine kidney (MDCK) cell lysate was prepared using M-PER Mammalian Protein Extraction Reagent (Thermal Scientific) in the presence of a protease inhibitor cocktail (Roche). Protein concentration was determined using BCA assay kit (Pierce). […] 0.1% DMSO was used as mock treatment or control. The reaction was terminated by adding 100 μL acetonitrile solution and subjected to LC/MS analysis.
# The quantitative analysis of NBD-Ceramide and glucosylceramide was performed on a Shimadzu ultra-fast liquid chromatography (Shimadzu, Japan) coupled with API 4000 triple quadrupole mass spectrometer (Applied Biosystems, Concord, Ontario, Canada). Sample separation was conducted on a Waters Xbridge™ BEH130 C18, 100 mm×4.6 mm i.d, 3.5 μm (Milford, Mass., USA). The mobile phase consisted of water and acetonitrile supplemented with 0.1% formic acid (v/v). The flow rate was 1.0 mL/min. The initial mobile phase was 20% acetonitrile and was ramped in a linear fashion to 50% acetonitrile in 0.4 min. From 0.4 to 1.5 min, the gradient was ramped to 98% acetonitrile, and then was held at […] until 8.0 min. Acetonitrile was reset to 20% in 1.5 min, and maintained until 10.0 min. The total run time was 10.0 min. The MS/MS detection was performed in ESI positive mode. The mass transition of NBD-Ceramide was m/z 576.36→558.40 under the collision energy of 15 V, and the mass transition of glucosylceramide was m/z 738.35→558.40 under 21V collision energy. The cell lysate was diluted with equal volume of acetonitrile. Aliquots of 50 μL diluted samples were added to 1.5 mL tubes, and 100 μL of acetonitrile containing internal standard (100 ng/mL tolbutamide) were added for protein precipitation. The mixture were vortexed and then centrifuged at 13000 rpm for 10 min. 70 μL of supernatant were mixed with 140 μL of H2O and the final solution were injected for LC/MS/MS analysis and IC50's and/or percent inhibitions calculated.
row,Compound,IC50 [nM]
1,"O=C(N[C@H](CN1CCCC1)[C@H](O)c1ccc2c(c1)OCCO2)C1CCN(c2ccc(Cl)cc2)C1 (stereo partly drawn) [Compound 1C, 1-(4-chlorophenyl)-N-((1R,2R)-1-(2,3-dihydrobenzo[b][1,4]dioxin-6-yl)-1-hydroxy-3-(pyrrolidin-1-yl)propan-2-yl)pyrrolidine-3-carboxamide]",1 to 30
2,"O=C(N[C@H](CN1CCCC1)[C@H](O)c1ccc2c(c1)OCCO2)C1CCN(c2ccc3cc(F)ccc3c2)C1 (stereo partly drawn) [Compound 14C, N-((1R,2R)-1-(2,3-dihydrobenzo[b][1,4]dioxin-6-yl)-1-hydroxy-3-(pyrrolidin-1-yl)propan-2-yl)-1-(6-fluoronaphthalen-2-yl)pyrrolidine-3-carboxamide]",1 to 30
3,"O=C(N[C@H](CN1CCCC1)[C@H](O)c1ccc2c(c1)OCCO2)[C@@H]1CCN(c2ccc(Cl)cc2)C1 [Compound 1, (R)-1-(4-chlorophenyl)-N-((1R,2R)-1-(2,3-dihydrobenzo[b][1,4]dioxin-6-yl)-1-hydroxy-3-(pyrrolidin-1-yl)propan-2-yl)pyrrolidine-3-carboxamide]",1 to 30
4,"O=C(N[C@H](CN1CCCC1)[C@H](O)c1cc2c(c(C(F)(F)F)c1)OCCO2)[C@@H]1CCN(c2ccc(Cl)cc2)C1 [Compound 137, (R)-1-(4-chlorophenyl)-N-((1R,2R)-1-hydroxy-3-(pyrrolidin-1-yl)-1-(8-(trifluoromethyl)-2,3-dihydrobenzo[b][1,4]dioxin-6-yl)propan-2-yl)pyrrolidine-3-carboxamide]",30 to 100
5,"O=C(N[C@H](CN1CCCC1)[C@H](O)c1ccc(OC2CCOCC2)c(Cl)c1)[C@@H]1CCN(c2ccc(Cl)cc2)C1 [Compound 45, (R)-N-((1R,2R)-1-(3-chloro-4-((tetrahydro-2H-pyran-4-yl)oxy)phenyl)-1-hydroxy-3-(pyrrolidin-1-yl)propan-2-yl)-1-(4-chlorophenyl)pyrrolidine-3-carboxamide]",1 to 30
6,"O=C(N[C@H](CN1CCCC1)[C@H](O)c1ccc(OC2CC2)c(Cl)c1)[C@@H]1CCN(c2ccc(Cl)c(Oc3ccc(F)cc3)c2)C1 [Compound 128, (R)-1-(4-chloro-3-(4-fluorophenoxy)phenyl)-N-((1R,2R)-1-(3-chloro-4-cyclopropoxyphenyl)-1-hydroxy-3-(pyrrolidin-1-yl)propan-2-yl)pyrrolidine-3-carboxamide]",1 to 30
7,"O=C(N[C@H](CN1CCCC1)[C@H](O)c1cc(F)c2c(c1)OCCO2)[C@@H]1CCN(c2ccc3ccccc3c2)C1 [Compound 81, (R)-N-((1R,2R)-1-(8-fluoro-2,3-dihydrobenzo[b][1,4]dioxin-6-yl)-1-hydroxy-3-(pyrrolidin-1-yl)propan-2-yl)-1-(naphthalen-2-yl)pyrrolidine-3-carboxamide]",1 to 30
8,"O=C(N[C@H](CN1CCCC1)[C@H](O)c1ccc(OC2CC2)c(Cl)c1)[C@@H]1CCN(c2ccccc2)C1 [Compound 150, (R)-N-((1R,2R)-1-(3-chloro-4-cyclopropoxyphenyl)-1-hydroxy-3-(pyrrolidin-1-yl)propan-2-yl)-1-phenylpyrrolidine-3-carboxamide]",1 to 30
9,"O=C(N[C@H](CN1CCC1)[C@H](O)c1ccc(OC2CC2)c(Cl)c1)[C@@H]1CCN(c2ccc3ccccc3c2)C1 [Compound 86, (R)-N-((1R,2R)-3-(azetidin-1-yl)-1-(3-chloro-4-cyclopropoxyphenyl)-1-hydroxypropan-2-yl)-1-(naphthalen-2-yl)pyrrolidine-3-carboxamide]",1 to 30
10,"O=C(N[C@H](CN1CCC1)[C@H](O)c1cc(F)c2c(c1)OCCO2)[C@@H]1CCN(c2ccc(Cl)cc2)C1 [Compound 25, (R)-N-((1R,2R)-3-(azetidin-1-yl)-1-(8-fluoro-2,3-dihydrobenzo[b][1,4]dioxin-6-yl)-1-hydroxypropan-2-yl)-1-(4-chlorophenyl)pyrrolidine-3-carboxamide]",1 to 30
11,"Cc1cccc(Oc2cc(N3CC[C@@H](C(=O)N[C@H](CN4CCCC4)[C@H](O)c4ccc(OC5CC5)c(Cl)c4)C3)ccc2Cl)n1 [Compound 131, (R)-1-(4-chloro-3-((6-methylpyridin-2-yl)oxy)phenyl)-N-((1R,2R)-1-(3-chloro-4-cyclopropoxyphenyl)-1-hydroxy-3-(pyrrolidin-1-yl)propan-2-yl)pyrrolidine-3-carboxamide]",1 to 30

# Same assay, conditions: Table 2; class symbols D, E, F, NA (not active); the table does not say which of the assays
row,Compound,Data Range (% inhibition)
1,"CN1CCc2ccc(N3CC[C@H](C(=O)N[C@H](CN4CCCC4)[C@H](O)c4ccc5c(c4)OCCO5)C3)cc2C1 [Compound 63D, (S)-N-((1R,2R)-1-(2,3-dihydrobenzo[b][1,4]dioxin-6-yl)-1-hydroxy-3-(pyrrolidin-1-yl)propan-2-yl)-1-(2-methyl-1,2,3,4-tetrahydroisoquinolin-7-yl)pyrrolidine-3-carboxamide]",NA (not active—a negative value was generated for % inhibition)
2,"O=C(N[C@H](CN1CCCC1)[C@H](O)c1ccc2c(c1)OCCO2)C1CCN(CCc2ccc(Cl)cc2)C1 (stereo partly drawn) [Compound 21E, 1-(4-chlorophenethyl)-N-((1R,2R)-1-(2,3-dihydrobenzo[b][1,4]dioxin-6-yl)-1-hydroxy-3-(pyrrolidin-1-yl)propan-2-yl)pyrrolidine-3-carboxamide]",F (1-49% (or less than 50%))
3,"O=C(N[C@H](CN1CCCC1)[C@H](O)c1ccc2c(c1)OCCO2)[C@H]1CCN(c2ccc3ccccc3c2)C1 [Compound 70A, (S)-N-((1R,2R)-1-(2,3-dihydrobenzo[b][1,4]dioxin-6-yl)-1-hydroxy-3-(pyrrolidin-1-yl)propan-2-yl)-1-(naphthalen-2-yl)pyrrolidine-3-carboxamide]",E (50-74% (or less than 75%))
4,"Cn1ncc2cc(N3CC[C@@H](C(=O)N[C@H](CN4CCCC4)[C@H](O)c4ccc(OC5CC5)c(Cl)c4)C3)ccc21 [Compound 127, (R)-N-((1R,2R)-1-(3-chloro-4-cyclopropoxyphenyl)-1-hydroxy-3-(pyrrolidin-1-yl)propan-2-yl)-1-(1-methyl-1H-indazol-5-yl)pyrrolidine-3-carboxamide]",E (50-74% (or less than 75%))
5,"CC(C)Oc1ccc([C@@H](O)[C@@H](CN2CCCC2)NC(=O)[C@@H]2CCN(c3ccc(Cl)cc3)C2)cn1 [Compound 29, (R)-1-(4-chlorophenyl)-N-((1R,2R)-1-hydroxy-1-(6-isopropoxypyridin-3-yl)-3-(pyrrolidin-1-yl)propan-2-yl)pyrrolidine-3-carboxamide]",F (1-49% (or less than 50%))
6,"O=C(N[C@H](CN1CCCC1)[C@H](O)c1ccc(OC2CCOCC2)c(Cl)c1)[C@H]1CCN(c2ccc3cc(F)ccc3c2)C1 [Compound 50A, (S)-N-((1R,2R)-1-(3-chloro-4-((tetrahydro-2H-pyran-4-yl)oxy)phenyl)-1-hydroxy-3-(pyrrolidin-1-yl)propan-2-yl)-1-(6-fluoronaphthalen-2-yl)pyrrolidine-3-carboxamide]",E (50-74% (or less than 75%))
7,"O=C(N[C@H](CN1CCCC1)[C@H](O)c1ccc2c(c1)OCCO2)[C@@H]1CCN(c2ccc3cccnc3c2)C1 [Compound 106, (R)-N-((1R,2R)-1-(2,3-dihydrobenzo[b][1,4]dioxin-6-yl)-1-hydroxy-3-(pyrrolidin-1-yl)propan-2-yl)-1-(quinolin-7-yl)pyrrolidine-3-carboxamide]",D (75-100%)
8,"O=C(N[C@H](CN1CCCC1)[C@H](O)c1ccc(OC2CC2)c(Cl)c1)[C@@H]1CCN(c2ccc3c(c2)CCCC3)C1 [Compound 98, (R)-N-((1R,2R)-1-(3-chloro-4-cyclopropoxyphenyl)-1-hydroxy-3-(pyrrolidin-1-yl)propan-2-yl)-1-(5,6,7,8-tetrahydronaphthalen-2-yl)pyrrolidine-3-carboxamide]",D (75-100%)
9,"O=C(N[C@H](CN1CCCC1)[C@H](O)c1ccc2c(c1)OCCO2)C1CCN(c2nc3c(s2)CCCC3)C1 (stereo partly drawn) [Compound 36F, N-((1R,2R)-1-(2,3-dihydrobenzo[b][1,4]dioxin-6-yl)-1-3-hydroxy-(pyrrolidin-1-yl)propan-2-yl)-1-(4,5,6,7-tetrahydrobenzo[d]thiazol-2-yl)pyrrolidine-3-carboxamide]",F (1-49% (or less than 50%))
